From patent publication US20150051202A1, “TRIAZOLOPYRAZINE DERIVATIVES” (Merck Patent GmbH, priority 2012, published 2015)

How the values were obtained:
[1] = molecular target: T1, SYK (Homo sapiens, UniProt P43405); assay: SYK enzyme assay (Flash plate assay / Caliper mobility shift assay); assay type: biochemical
T1 construct: purchased BPS Bioscience, CA, USA
Method: The kinase assay is performed either as 384-well Flashplate assay (for e.g. Topcount measurement) or as 384-well Image-Flashplate assay (for LEADseeker measurement).
2.5 nM SYK, 400 nM Biotin-Aha-Aha-[…]
and 10 μM ATP (spiked with 0.3 μCi 33P-ATP/well) are incubated in a total volume of 50 μl (60 mM Hepes, 10 mM MgCl2, 1.2 mM Dithiothreitol, 0.02% Brij35, 0.1% BSA, pH 7.5) with or without test compound for 1 hours at 30° C. The reaction is stopped with 25 μl 200 mM EDTA. After 30 Min at 30° C. the liquid is removed and each well washed thrice with 100 μl 0.9% sodium chloride solution. Non-specific reaction is determined in presence of 0.1 μM Staurosporine. Radioactivity is measured with Topcount (when using Flashplates) or with LEADseeker (when using Image-Flashplates) respectively. Results (e.g. IC50-values) are calculated with program tools provided by the IT-department (e.g. Symyx Assay Explorer, Genedata Screener).
Enzymatic Assays Using the Caliper LifeSciences Technology
The assays described here are performed on the Caliper Life Sciences LC3000 system This technology provides data on enzyme activity via measurement of the relative amounts of phosphorylated or unphosphorylated fluorescently labelled substrate peptide at the end of an enzymatic reaction.
These different states of peptide are resolved by applying a potential difference across the sample. The presence of the charged phosphate group on the product (as opposed to the substrate) causes a different peptide mobility between the two peptides. This is visualized by excitation of the fluorescent label on the substrate and product peptides and represented as peaks within the analysis software.
In order to measure inhibitor activity of kinase inhibitors on this technology, a TTP Mosquito liquid handling instrument is used to place 0.25 ul of the appropriate concentration of inhibitor in 100% DMSO (for a dose response curve calculation) into each well of a 384-well plate. To this reaction components are added to a final volume of 25 ul. The table below indicates the sequences and concentrations for the assays described in this report. Standard components are 1 mM DTT (Sigma, D0632), 1 mM MgCl2 (Sigma, M1028), 100 mM HEPES pH 7.5 (Calbiochem, 391338), 0.015% Brij-35 (Sigma, B4184).
The reaction is incubated for 90 min at 25 C, and then stopped by the addition of 70 ul of Stop buffer (100 mM HEPES pH 7.5, 0.015% Brij-35, 10 mM EDTA (Sigma, E7889)).
The plate is read on a Caliper LC 3000 in an Off-Chip mobility shift assay format, on a 12-sipper chip. Unphosphorylated substrate and phosphorylated product peptide resolve as separate peaks allowing direct measurement of percentage of conversion of substrate to product. The percent conversion can be plotted against concentration of inhibitor to produce a sigmoidal dose response curve, from which an IC50 can be calculated using GeneData Condoseo or a similar product.

[2] = molecular target: GCN2 (Homo sapiens, UniProt Q9P2K8); assay: GCN2 enzyme assay (TR-FRET Lanthascreen, GFP-eIF2alpha substrate); assay type: biochemical
From the text: GCN2: Assay Principle & Conditions
This assay can quantificate the activity of the serin kinase GCN2 (general control non-derepressible-2).
This kinase is involved in the stress metabolism of cells. It is activated upon starvation (amino acid depletion). Its natural substrate is eIF2a (eukaryotic initiation factor 2 alpha subunit), a translation factor, which gets activated (phosphorylated) by GCN2 in case of an amino acid bottleneck in the cells. This in turn leads to a halt of the protein synthesis. Inhibition of GCN2 results in stopping this mechanism: The cell can not stop protein production upon “starvation” stress.
The assay is run in two steps: the enzymatic reaction and the detection step. In the first step GCN2 is incubated with 10 μM ATP and 80 nM of the GFP-labelled substrate eIF2alpha at room temperature.
The enzymatic reaction is stopped by addition of EDTA. The amount of phosphorylated eIF2alpha is determined by TR-FRET (Lanthascreen): A complex is formed consisting of antibody and GFP labelled phospho-eIF2a, which allows a FRET upon exitation at 340 nm.
Final Concentrations in the Enzymatic Reaction • Hepes, pH 7.0 50 mM • MgCl2 10 mM • MnCl2 5 mM • BSA 0.1% • DMSO 1% • ATP 10 uM • DTT 2 mM • GFP-eIF2a 80 nM (substrate) • GCN2 30 nM (enzyme)

[3] = 100% corresponds to zero effect, −50% corresponds to IC50

Sequence of GCN2 (Q9P2K8 whole entry): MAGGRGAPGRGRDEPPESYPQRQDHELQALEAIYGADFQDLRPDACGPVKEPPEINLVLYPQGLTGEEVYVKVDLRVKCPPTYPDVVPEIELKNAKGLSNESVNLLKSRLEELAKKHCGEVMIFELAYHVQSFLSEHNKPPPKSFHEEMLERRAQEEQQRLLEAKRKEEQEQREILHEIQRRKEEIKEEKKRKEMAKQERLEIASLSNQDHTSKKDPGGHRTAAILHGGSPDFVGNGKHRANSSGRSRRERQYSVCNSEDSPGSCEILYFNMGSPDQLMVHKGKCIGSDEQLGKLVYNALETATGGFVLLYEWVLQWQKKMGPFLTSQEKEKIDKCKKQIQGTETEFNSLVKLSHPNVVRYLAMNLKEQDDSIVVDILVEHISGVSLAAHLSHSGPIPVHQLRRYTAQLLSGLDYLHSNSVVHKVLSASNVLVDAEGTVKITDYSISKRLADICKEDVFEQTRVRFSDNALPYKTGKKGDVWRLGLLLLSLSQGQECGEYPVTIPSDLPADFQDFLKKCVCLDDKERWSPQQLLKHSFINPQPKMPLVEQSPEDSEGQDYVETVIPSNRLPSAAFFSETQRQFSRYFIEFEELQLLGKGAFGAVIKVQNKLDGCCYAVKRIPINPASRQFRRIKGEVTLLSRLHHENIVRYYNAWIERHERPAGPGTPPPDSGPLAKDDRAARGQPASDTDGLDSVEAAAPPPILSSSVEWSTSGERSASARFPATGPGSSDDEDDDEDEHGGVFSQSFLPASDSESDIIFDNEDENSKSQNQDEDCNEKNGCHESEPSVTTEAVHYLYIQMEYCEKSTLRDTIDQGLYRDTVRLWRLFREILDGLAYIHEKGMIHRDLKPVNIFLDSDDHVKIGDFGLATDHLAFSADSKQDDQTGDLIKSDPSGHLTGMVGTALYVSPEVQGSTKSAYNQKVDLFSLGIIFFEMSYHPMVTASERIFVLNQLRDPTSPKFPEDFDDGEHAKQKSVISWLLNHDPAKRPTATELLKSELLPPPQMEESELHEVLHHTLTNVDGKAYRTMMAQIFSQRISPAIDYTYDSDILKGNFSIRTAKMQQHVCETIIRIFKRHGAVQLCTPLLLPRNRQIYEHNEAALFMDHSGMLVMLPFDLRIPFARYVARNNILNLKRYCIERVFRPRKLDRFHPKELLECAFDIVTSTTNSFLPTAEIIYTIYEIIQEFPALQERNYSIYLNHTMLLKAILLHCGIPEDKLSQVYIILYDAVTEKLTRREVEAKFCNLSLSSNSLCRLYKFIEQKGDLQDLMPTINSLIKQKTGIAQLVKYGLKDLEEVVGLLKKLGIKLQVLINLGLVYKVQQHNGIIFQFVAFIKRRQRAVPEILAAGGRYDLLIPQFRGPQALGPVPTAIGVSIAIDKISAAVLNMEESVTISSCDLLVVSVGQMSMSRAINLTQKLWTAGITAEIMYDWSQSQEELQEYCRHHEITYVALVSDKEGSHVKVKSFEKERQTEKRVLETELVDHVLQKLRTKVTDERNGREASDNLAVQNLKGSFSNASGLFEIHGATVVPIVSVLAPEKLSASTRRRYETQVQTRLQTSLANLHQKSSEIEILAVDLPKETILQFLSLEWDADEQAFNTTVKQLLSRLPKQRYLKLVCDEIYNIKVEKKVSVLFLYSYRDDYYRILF

SMILES | SYK (enzyme assay) % at 3 μM [1, 3] | IC50 [2] | IC50 [1] | SYK (enzyme assay) % at 0.3 μM ([1]; at 0.3 μM, 100% corresponds to zero effect, −50% corresponds to IC50)
CN1CCN(c2ccc(Nc3nc4cncc(Nc5cnn(C)c5)n4n3)cc2)CC1 [Compound A53, N2-[4-(4-methyl-piperazin-1-yl)-phenyl]-N5-(1-methyl-1H-pyrazol-4-yl)-[1,2,4] triazolo[1,5-a]pyrazine-2,5-diamine] | −23@3% | 1000 to 5000 nM | – | –
Cc1ccc(-c2cncc3nc(Nc4ccc(N5CCOCC5)cc4)nn23)o1 [Compound A55, [5-(5-methyl-furan-2-yl)-[1,2,4]triazolo[1,5-a]pyrazin-2-yl]-(4-morpholin-4-yl-phenyl)-amine] | – | < 1000 nM | < 1 µM | –
Cn1cc(-c2cncc3nc(Nc4cccc(C#N)c4)nn23)cn1 [Compound A57, 3-[5-(1-methyl-1H-pyrazol-4-yl)-[1,2,4]triazolo[1,5-a]pyrazin-2-ylamino]-benzonitrile] | – | 1000 to 5000 nM | 5 to 10 µM | –
Cn1cc(-c2cncc3nc(Nc4ccc(-c5ccncc5)cc4)nn23)cn1 [Compound A60, [5-(1-methyl-1H-pyrazol-4-yl)-[1,2,4]triazolo[1,5-a]pyrazin-2-yl]-(4-pyridin-4-yl-phenyl)-amine] | – | 1000 to 5000 nM | < 1 µM | –
c1cc(N2CCOCC2)ccc1Nc1nc2cncc(-c3ccc(CN4CCOCC4)s3)n2n1 [Compound A62, [5-(5-morpholin-4-ylmethyl-thiophen-2-yl)-[1,2,4]triazolo[1,5-a]pyrazin-2-yl]-(4-morpholin-4-yl-phenyl)-amine] | −5@3% | < 1000 nM | – | –
Cc1cc(Nc2nc3cncc(-c4cnn(C)c4)n3n2)ccc1OC(F)(F)F [Compound A64, [5-(1-methyl-1H-pyrazol-4-yl)-[1,2,4]triazolo[1,5-a]pyrazin-2-yl]-(3-methyl-4-trifluoromethoxy-phenyl)-amine] | – | < 1000 nM | 1 to 5 µM | –
Cc1cc(Nc2nc3cncc(-c4cnn(C)c4)n3n2)ccc1NC(=O)C1CCC1 [Compound A65, cyclobutanecarboxylic acid {2-methyl-4-[5-(1-methyl-1H-pyrazol-4-yl)-[1,2,4]triazolo[1,5-a]pyrazin-2-ylamino]-phenyl}-amide] | – | < 1000 nM | 5 to 10 µM | –
Cn1cc(-c2cncc3nc(Nc4ccc(C(=O)N5CCOCC5)cc4)nn23)cn1 [Compound A66, {4-[5-(1-methyl-1H-pyrazol-4-yl)-[1,2,4]triazolo[1,5-a]pyrazin-2-ylamino]-phenyl}-morpholin-4-yl-methanone] | – | < 1000 nM | 1 to 5 µM | –
COc1cc(Nc2nc3cncc(-c4cnn(C)c4)n3n2)ccc1N1CCN(C)CC1 [Compound A67, [3-methoxy-4-(4-methyl-piperazin-1-yl)-phenyl]-[5-(1-methyl-1H-pyrazol-4-yl)-[1,2,4]triazolo[1,5-a]pyrazin-2-yl]-amine] | – | < 1000 nM | 1 to 5 µM | –
Cc1cc(Nc2nc3cncc(-c4cnn(C)c4)n3n2)ccc1CN1CCOCC1 [Compound A68, (3-methyl-4-morpholin-4-ylmethyl-phenyl)-[5-(1-methyl-1H-pyrazol-4-yl)-[1,2,4]triazolo[1,5-a]pyrazin-2-yl]-amine] | – | < 1000 nM | 1 to 5 µM | –
COc1cc(Nc2nc3cncc(-c4cnn(C)c4)n3n2)ccc1C(=O)NCC1CC1 [Compound A70, N-cyclopropylmethyl-2-methoxy-4-[5-(1-methyl-1H-pyrazol-4-yl)-[1,2,4]triazolo[1,5-a]pyrazin-2-ylamino]-benzamide] | – | < 1000 nM | – | −12@0.3%
Cc1cc(Nc2nc3cncc(-c4cnn(C)c4)n3n2)ccc1C(=O)NC1CC1 [Compound A71, N-cyclopropyl-2-methyl-4-[5-(1-methyl-1H-pyrazol-4-yl)-[1,2,4]triazolo[1,5-a]pyrazin-2-ylamino]-benzamide] | – | < 1000 nM | 1 to 5 µM | –
COc1cc(Nc2nc3cncc(-c4cnn(CCN5CCOCC5)c4)n3n2)ccc1N1CCN(C)CC1 [Compound A75, [3-methoxy-4-(4-methyl-piperazin-1-yl)-phenyl]-{5-[1-(2-morpholin-4-yl-ethyl)-1H-pyrazol-4-yl]-[1,2,4]triazolo[1,5-a]pyrazin-2-yl}-amine] | −21@3% | < 1000 nM | – | –

Other lines, results leading:

SYK (enzyme assay) % at 3 μM [1, 3] | IC50 [2] | IC50 [1] | SYK (enzyme assay) % at 0.3 μM ([1]; at 0.3 μM, 100% corresponds to zero effect, −50% corresponds to IC50) | SMILES
– | 1000 to 5000 nM | 1 to 5 µM | – | c1cc(N2CCOCC2)ccc1Nc1nc2cncc(-c3cnn(CCN4CCOCC4)c3)n2n1 [Compound A56, {5-[1-(2-morpholin-4-yl-ethyl)-1H-pyrazol-4-yl]-[1,2,4]triazolo[1,5-a]pyrazin-2-yl}-(4-morpholin-4-yl-phenyl)-amine]
−34@3% | < 1000 nM | – | – | O=C1Cc2cc(Nc3nc4cncc(-c5ccc(CN6CCOCC6)s5)n4n3)ccc2N1 [Compound A58, 5-[5-(5-morpholin-4-ylmethyl-thiophen-2-yl)-[1,2,4]triazolo[1,5-a]pyrazin-2-ylamino]-1,3-dihydro-indol-2-one]
– | < 1000 nM | 1 to 5 µM | – | Cn1cc(-c2cncc3nc(Nc4ccc5c(c4)OCCO5)nn23)cn1 [Compound A59, (2,3-dihydro-benzo[1,4]dioxin-6-yl)-[5-(1-methyl-1H-pyrazol-4-yl)-[1,2,4]triazolo[1,5-a]pyrazin-2-yl]-amine]
– | < 1000 nM | 1 to 5 µM | – | Cn1cc(-c2cncc3nc(Nc4ccc(CN5CCOCC5)cc4)nn23)cn1 [Compound A61, [5-(1-methyl-1H-pyrazol-4-yl)-[1,2,4]triazolo[1,5-a]pyrazin-2-yl]-(4-morpholin-4-ylmethyl-phenyl)-amine]
−30@3% | 1000 to 5000 nM | – | – | N#Cc1cc(-c2cncc3nc(Nc4ccc(N5CCOCC5)cc4)nn23)ccc1OC1CCOCC1 [Compound A63, 5-[2-(4-morpholin-4-yl-phenylamino)-[1,2,4]triazolo[1,5-a]pyrazin-5-yl]-2-(tetrahydro-pyran-4-yloxy)-benzonitrile]
– | < 1000 nM | 1 to 5 µM | – | Cc1cc(Nc2nc3cncc(-c4cnn(C)c4)n3n2)ccc1C(=O)NCC1CC1 [Compound A69, N-cyclopropylmethyl-2-methyl-4-[5-(1-methyl-1H-pyrazol-4-yl)-[1,2,4]triazolo[1,5-a]pyrazin-2-ylamino]-benzamide]
– | < 1000 nM | 5 to 10 µM | – | COc1cc(Nc2nc3cncc(-c4cnn(C)c4)n3n2)ccc1C(=O)NC1CC1 [Compound A72, N-cyclopropyl-2-methoxy-4-[5-(1-methyl-1H-pyrazol-4-yl)-[1,2,4]triazolo[1,5-a]pyrazin-2-ylamino]-benzamide]
– | < 1000 nM | 1 to 5 µM | – | Cc1cc(Nc2nc3cncc(-c4cnn(C)c4)n3n2)ccc1C(=O)N1CCOCC1 [Compound A73, {2-methyl-4-[5-(1-methyl-1H-pyrazol-4-yl)-[1,2,4]triazolo[1,5-a]pyrazin-2-ylamino]-phenyl}-morpholin-4-yl-methanone]
4@3% | 5000 to 10000 nM | – | – | Cn1cc(-c2cncc3nc(NC(=O)C4CCNCC4)nn23)cn1 [Compound A74, piperidine-4-carboxylic acid [5-(1-methyl-1H-pyrazol-4-yl)-[1,2,4]triazolo[1,5-a]pyrazin-2-yl]-amide]
